Reference: PMC8924211 (Nature Communications, 2022)
Numbering of substitutions follows the chain as printed.

Key:
Assay type in all cases: cell-based
GAL2R mutants = molecular target: T1, GAL2R mutants (Homo sapiens, UniProt O43603, R184A); test: Calcium assay, HEK293/Gα16 cells, GAL2R mutants; conditions: GAL2R R1845.35A
T1 construct: expressed in transfected cells; host or cells: HEK293
T1 sequence (O43603 1-387 R184A): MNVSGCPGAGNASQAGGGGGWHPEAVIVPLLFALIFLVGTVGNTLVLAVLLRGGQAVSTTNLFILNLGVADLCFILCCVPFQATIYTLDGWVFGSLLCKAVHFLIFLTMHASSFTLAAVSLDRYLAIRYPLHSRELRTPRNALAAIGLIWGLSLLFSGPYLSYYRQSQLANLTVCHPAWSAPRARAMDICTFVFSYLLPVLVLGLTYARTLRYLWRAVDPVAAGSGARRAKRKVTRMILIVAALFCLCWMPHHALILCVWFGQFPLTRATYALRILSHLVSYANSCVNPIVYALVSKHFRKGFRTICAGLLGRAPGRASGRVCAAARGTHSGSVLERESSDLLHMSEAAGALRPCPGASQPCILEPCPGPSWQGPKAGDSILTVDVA

GAL1R = GAL1R (Homo sapiens, UniProt P47211); test: Calcium assay, HEK293/Gα16 cells, WT GAL1R; conditions: HEK293/Gα16, calcium response (Supplementary Fig. 9a)
Chain of GAL1R (P47211 whole entry): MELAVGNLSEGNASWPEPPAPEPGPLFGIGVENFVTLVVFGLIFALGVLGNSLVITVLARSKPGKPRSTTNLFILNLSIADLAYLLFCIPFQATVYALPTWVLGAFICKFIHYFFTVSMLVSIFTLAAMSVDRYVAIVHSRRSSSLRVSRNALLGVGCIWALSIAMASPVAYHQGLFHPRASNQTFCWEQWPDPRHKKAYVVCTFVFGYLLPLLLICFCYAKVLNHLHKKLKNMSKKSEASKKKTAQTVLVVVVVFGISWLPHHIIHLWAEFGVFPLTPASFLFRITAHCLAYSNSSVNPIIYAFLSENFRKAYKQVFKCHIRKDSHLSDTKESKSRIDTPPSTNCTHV

GAL2R = molecular target: T2, GAL2R (Homo sapiens, UniProt O43603); test: Calcium assay, HEK293/Gα16 cells, WT GAL2R
T2 construct: expressed in transfected cells; host or cells: HEK293/Gα16
T2 sequence (O43603 1-387): T1 sequence (O43603 1-387 R184A) with A184R

[1] = response of 100 μM spexin compared to WT, mean ± S.E.M.

- Emax (GAL2R mutants; [1]): 32.36±1.6%
- EC50 (GAL2R mutants; spexin, replicate 1): 371.2 nM
- Emax (GAL2R mutants; spexin, replicate 1): 29.7886%
- EC50 (GAL2R mutants; spexin, replicate 2): 973.1 nM
- Emax (GAL2R mutants; spexin, replicate 2): 32.1089%
- EC50 (GAL2R mutants; spexin, replicate 3): 10580 nM
- Emax (GAL2R mutants; spexin, replicate 3): 35.1728%
- activation of GAL1R (GAL1R): did not activate
- Emax (GAL2R; [1]): 100±4.9%
- EC50 (GAL2R; spexin, replicate 1): 326.8 nM
- Emax (GAL2R; spexin, replicate 1): 101.879%
- EC50 (GAL2R; spexin, replicate 2): 177.5 nM
- Emax (GAL2R; spexin, replicate 2): 107.462%
- EC50 (GAL2R; spexin, replicate 3): 81.38 nM
- Emax (GAL2R; spexin, replicate 3): 90.6585%
Substance: spexin
